Assay results published in US9586963B2 (GENFIT, priority 2011, dated 2017).
Structures can show the parent of a compound that is named as a salt. Where two headings read alike, the source gives them in different places.

Molecular target: T1, Rev-Erb alpha (Homo sapiens, UniProt P20393)
T1 sequence (P20393 284-614 limits assumed): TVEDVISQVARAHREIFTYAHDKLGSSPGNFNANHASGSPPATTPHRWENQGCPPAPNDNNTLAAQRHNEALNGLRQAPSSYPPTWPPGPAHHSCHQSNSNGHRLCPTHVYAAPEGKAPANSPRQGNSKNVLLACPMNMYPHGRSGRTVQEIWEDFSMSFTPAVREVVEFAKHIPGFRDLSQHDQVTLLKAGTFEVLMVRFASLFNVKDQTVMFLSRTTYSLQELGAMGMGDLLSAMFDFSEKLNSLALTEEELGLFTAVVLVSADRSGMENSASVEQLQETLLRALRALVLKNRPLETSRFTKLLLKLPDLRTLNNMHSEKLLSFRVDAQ
Experiment: M2H (mammalian two-hybrid) cellular activation assay of Rev-Erb alpha
Type: cell-based
Details: for EC50: Gal4-Rev-Erb alpha / VP16-NCoR, luciferase reporter
Procedure: In this system, Rev-Erb alpha or Rev-Erb beta is expressed as a fusion to the Gal4 DNA-binding domain and the cofactor NCoR is expressed as a fusion to the activation domain of the Herpes Simplex Virus tegument protein VP16. These fusion proteins were included in plasmids at a concentration of 1 μg/μL. The pBS-SK+ vector was added to the preparation to adjust the DNA quantity to a fixed value for each condition.
The transfection mix (Jet-PEI protocol, Polyplus transfection) comprised: • 3 mL of Jet PEI Mix (180 μL Jet-Pei and NaCl at 150 mM) and • 3 mL of the DNA Mix or of the DNA Mix control (wherein the Gal4-Rev-Erb alpha plasmid was replaced by a pGal4phi plasmid).
DNA Mix comprised 1.2 mL of DNA and 1.8 mL of NaCl at 150 mM with, in a T225 flask: • 90 ng of Gal4-Rev-Erb alpha, or 90 ng of Gal4-Rev-Erb beta, • 4500 ng of VP16-NCoR, • 27000 ng of Gal4-RE and • 13410 ng of pBS-SK+. Cells
HEK293 cells were cultured in DMEM (Invitrogen 41965) comprising 10% FBS, P/S, 1% glutamine, 1% pyruvate (Invitrogen 11360) and 1% amino acids (Invitrogen 11140). Cells were then batch co-transfected with plasmid vectors (described in the table above) using as Jet-PEI as reagent (Polyplus) following the protocol specified below.
The 6 mL-transfection mix was transferred in a T225 flask. HEK293 cells were then added at a concentration of 12 Millions of cells for 54 mL of medium (DMEM comprising 10% FBS and 1% P/S). Cells incubated over-night at 37° C. and under 5% CO2.
This cell-based assay is performed using 384-well Greiner white plates (Reference 781080). After the incubation, cells were rinsed with PBS, trypsinized, centrifuged and resuspended in free-serum DMEM without phenol red (Invitrogen 31053). Cells were counted and adjusted to 0.5 Million per mL and plated at a concentration of 10,000 cells in 20 μL per well. They were incubated a minimum of 4 hours at 37° C. under 5% CO2. Cells were treated with 20 μL of the compound to analyze (concentration of 2× diluted in DMEM without FBS containing a maximum of 1% DMSO) and incubated over-night (18 hours, 37° C. and 5% CO2). Each compound has been tested at 6 different concentrations to depict a dose-effect allowing the measure of biochemical parameters such as EC50 and TOP activation (%).
Cells were incubated 30 minutes with 40 μL/well of Steady Glow (Promega) and luminescence was read with TECAN Genios Pro (100 ms/w). Four experiments were carried out for each compound.
Each compound has been tested at 6 different concentrations to depict a dose-effect allowing the measure of biochemical parameters such as EC50 and TOP activation (%).
The mammalian two-hybrid system (M2H) assay consists herein in studying the ability of compounds according to the invention to activate Rev-Erbalpha in cells and thus modulate the interaction with its corepressor. The interaction of the two proteins is assessed with the help of the Luciferase reporter gene. HEK293 cells were transfected with two gene constructions: Gal4-RE VP16-NCoR and Gal4-Rev-Erbalpha or with Gal4-RE, sVP16-NCoR and Gal4-Rev-Erb beta.
The ability of compounds according to the invention of activating Rev-Erbalpha alpha or Rev-Erb beta was assessed in the described cell-based assay. EC50 and TOP activation (%) were measured.

[1] = M2H assay, HEK293 cells, relative to DMSO, at the tested dose, read-out: TOP activation

EC50 (M2H assay, HEK293 cells) | Emax [1] | Structure (SMILES) | Emax (HEK293, read-out: TOP activation)
100 to 1000 nM | – | COc1ncc(-c2ccc(C(F)(F)F)cc2Oc2nn3c(Cl)nnc3c3ccccc23)cn1 [Cpd.5-36, 3-chloro-6-((2-(2-methoxypyrimidin-5-yl))-5-(trifluoromethyl)phenoxy)-[1,2,4]triazolo[3,4-a]phthalazine] | –
> 6000 nM | > 130% | Clc1nnc2ccc(Oc3ccccc3-c3cscn3)nn12 [Cpd.4-103, 3-chloro-6-(2-(thiazol-4-yl)phenoxy)-[1,2,4]triazolo[4,3-b]pyridazine] | –
1000 to 6000 nM | – | CCc1ncncc1-c1ccc(C(F)(F)F)cc1Oc1cc(C)c2nnc(Cl)n2n1 [Cpd.5-53, 3-chloro-6-(2-(4-ethylpyrimidin-5-yl)-5-(trifluoromethyl)phenoxy)-8-methyl-[1,2,4]triazolo[4,3-b]pyridazine] | –
100 to 1000 nM | – | COc1ncc(-c2ccc(C(F)(F)F)cc2Oc2cc(C)c3nnc(Cl)n3n2)cn1 [Cpd.5-34, 3-chloro-8-methyl-6-((2-(2-methoxypyrimidin-5-yl))-5-(trifluoromethyl)phenoxy)-[1,2,4]triazolo[4,3-b]pyridazine] | –
1000 to 6000 nM | – | COc1cncc(-c2ccc(C(F)(F)F)cc2Oc2ccc3nnc(Cl)n3n2)c1 [Cpd.4-82, 3-chloro-6-(2-(5-methoxypyridin-3-yl)-5-(trifluoromethyl)phenoxy)-[1,2,4]triazolo[4,3-b]pyridazine] | –
100 to 1000 nM | – | Fc1ncccc1-c1ccc(C(F)(F)F)cc1Oc1ccc2nnc(Cl)n2n1 [Cpd.4-78, 3-chloro-6-(2-(2-fluoropyridin-3-yl)-5-(trifluoromethyl)phenoxy)-[1,2,4]triazolo[4,3-b]pyridazine] | –
< 100 nM | – | COC(=O)c1ccc(-c2ccccc2)c(Oc2ccc3nnc(Cl)n3n2)c1 [Cpd.4-43, 3-chloro-6-(4-methyloxycarbonyl-biphenyl-2-yloxy)-[1,2,4]triazolo[4,3-b]pyridazine] | –
1000 to 6000 nM | – | FC(F)(F)c1ccc(-c2ccncc2)c(Oc2ccc3nnc(Cl)n3n2)c1 [Cpd.4-79, 3-chloro-6-(2-(pyridin-4-yl)-5-(trifluoromethyl)phenoxy)-[1,2,4]triazolo[4,3-b]pyridazine hydrochloride] | –
1000 to 6000 nM | – | CC(C)c1ncncc1-c1ccc(C(F)(F)F)cc1Oc1ccc2nnc(Cl)n2n1 [Cpd.4-128, 3-chloro-6-((2-(4-isopropylpyrimidin-5-yl))-5-(trifluoromethyl)phenoxy)-[1,2,4]triazolo[4,3-b]pyridazine] | –
1000 to 6000 nM | – | Cc1cc(Oc2cc(C(F)(F)F)ccc2-c2cncnc2C(C)C)nn2c(Cl)nnc12 [Cpd.5-38, 3-chloro-8-methyl-6-((2-(4-isopropylpyrimidin-5-yl))-5-(trifluoromethyl)phenoxy)-[1,2,4]triazolo[4,3-b]pyridazine] | –
1000 to 6000 nM | – | FC(F)(F)c1ccc(-c2cccc(CNC3CC3)c2)c(Oc2ccc3nnc(Cl)n3n2)c1 [Cpd.4-168, 3-chloro-6-(4-(trifluoromethyl)-3′-(cyclopropylaminomethyl)biphenyl-2-yloxy)-[1,2,4]triazolo[4,3-b]pyridazine, hydrochloride] | –
< 100 nM | – | FC(F)(F)c1ccc(-c2ccccc2)c(Oc2nn3c(Cl)nnc3c3ccccc23)c1 [Cpd.5-1, 3-chloro-6-(4-trifluoromethyl-biphenyl-2-yloxy)-[1,2,4]triazolo[3,4-a]phthalazine] | –
1000 to 6000 nM | – | Nc1ccc(Oc2ccc3nnc(Cl)n3n2)c(-c2ccccc2)c1 [Cpd.4-36, 6-(5-amino-biphenyl-2-yloxy)-3-chloro-[1,2,4]triazolo[4,3-b]pyridazine] | –
> 6000 nM | > 130% | CN(C)Cc1ccc(Oc2ccc3nnc(Cl)n3n2)c(-c2ccccc2)c1 [Cpd.4-63, 3-chloro-6-(5-N,N-dimethylaminomethyl-biphenyl-2-yloxy)-[1,2,4]triazolo[4,3-b]pyridazine] | –
> 6000 nM | > 130% | Clc1nnc2ccc(Oc3cc(CNCC4CCCO4)ccc3-c3ccccc3)nn12 (centres unmarked) [Cpd.4-180] | –

Structure (SMILES) | EC50 (M2H assay, HEK293 cells) | Emax [1] | Emax (HEK293, read-out: TOP activation)
Fc1ccc(Oc2ccc3nnc(Cl)n3n2)c(-c2cccc(CN3CCCCC3)c2)c1 [hydrochloride] | > 6000 nM | – | > 130%
